Key:
[1] = biological target: T1, His-tagged human recombinant DDR-2 kinase domain (His-TEV-DDR2 467-855 aa) (Homo sapiens, UniProt Q16832); experiment: Autophosphorylation assay for biochemical activity testing of DDR2 (HTRF); settings: 4 nM DDR2 kinase domain, 150 μM ATP, 150 min at 22° C.
T1 construct: His-TEV-DDR2 467-855 aa
T1 sequence (Q16832 467-855): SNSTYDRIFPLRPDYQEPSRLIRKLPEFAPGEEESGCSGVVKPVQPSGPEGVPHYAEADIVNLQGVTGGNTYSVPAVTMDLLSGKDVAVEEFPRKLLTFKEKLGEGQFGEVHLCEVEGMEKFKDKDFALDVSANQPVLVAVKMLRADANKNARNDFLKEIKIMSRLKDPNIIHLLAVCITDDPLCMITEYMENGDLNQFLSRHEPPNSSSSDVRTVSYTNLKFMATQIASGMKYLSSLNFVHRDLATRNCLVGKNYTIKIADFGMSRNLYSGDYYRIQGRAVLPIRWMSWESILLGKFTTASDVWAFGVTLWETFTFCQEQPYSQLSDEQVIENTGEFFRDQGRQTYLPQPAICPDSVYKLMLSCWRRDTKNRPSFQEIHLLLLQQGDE
Summary of the method: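 Phospho-tyrosine was detected by HTRF between XL665 anti-6His and cryptate anti-phosphotyrosine PT66 antibodies, using the emission ratio. Inhibition was referenced to the inhibitor-free reaction.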

[2] = tested on: proMMP13 production by SW1353 cells; experiment: Production of MMP13 (proMMP13 ELISA) by SW1353 cells upon stimulation with collagen type II; assay type: cell-based; settings: Homo sapiens, SW1353, 72 h, read-out: IC50 [pro-MMP13]
Experimental: The binding of Collagen type II to the DDR2 receptor of the SW1353 cells initiate a signalling cascade resulting in the increase of MMP13 expression. MMP13 is released in the culture medium in its pro-form, the proMMP13 which can be measured with an ELISA.
DDR2 inhibitors are evaluated for their ability to block this signalling cascade and therefore proMMP13 production upon collagen stimulation.
SW1353 cells (ATCC, HTB-94), conserved in liquid nitrogen, are thawed and cultivated at 1.6.10^6 cells in a T75 in RPMI1640 supplemented with 2 mM Glutamin, 1 mM Na-Pyruvate, 10% FCS, at 37° C., 5% CO2 for three days. SW1353 cells are then harvested with trypsin/EDTA and resuspended in RPMI1640 supplemented with 2 mM Glutamin, 1 mM Na-Pyruvate, 25 mM HEPES and 0.5% FCS (assay medium) and inoculated in a 96 well plate at 30 000 cells/well in 100 μL of the assay medium and further incubated 24 hours at 37°, 5% CO2 to enable cell adhesion. For stimulation of the DDR2 receptor, 50 μL of a collagen type II solution 160 μg/mL (final concentration in the well is 40 μg/mL) will be added in each well as well as 50 μL of the different dilutions of the inhibitors (MSCs) from 0.003 μM to 10 μM (final concentration in the plate). Each condition is performed in four-plicates. After three additional days of culture, the supernatant will be harvested for proMMP13 measurement.
The Different Controls Present on Each Plate are Composed of Assay Medium with: Positive control (with the reference compound): 40 μg/mL Collagen type II, 0.03 μM Dasatinib (reference compound) in 0.1% DMSO Negative control (no inhibition): 40 μg/mL Collagen type II and 0.1% DMSO Medium control (no stimulation): 0.005% Acetic acid and 0.1% DMSO All wells contains 0.1% DMSO and 0.005% acetic acid.
The solutions needed are: • Collagen type II is diluted at 2 mg/mL in 0.25% acetic acid. This stock solution can be stored at 4° C. for a week and is diluted 1/12.5 in the assay medium (to obtain 160 μg/mL in 0.02% acetic acid) before being used in the assay. • MSCs from 0.012 to 40 μM in assay medium with 0.4% DMSO (they are then further diluted ¼ in the assay plate) • Dasatinib 0.12 μM in assay medium with 0.4% DMSO (it is then further diluted ¼ in the assay plate) • Acetic acid 0.02% in assay medium (control).
The harvested supernatants are either directly used or stored at −20° C. until use. ProMMP13 is measured with a commercial ELISA kit, according the recommendation of the manufacturer (see Annex). Briefly, 50 μL of each samples are used undiluted and the standard curve is realised in the assay medium. At the end of the assay the ELISA plate is read on a Paradigm MTP-Reader (Beckman Coulter) at 540 (reference wavelength) and 450 nm. All the absorbance values obtained at 450 nm are corrected with the absorbance at 540 nm and a ‘Four Parameter Fit’ is used to establish the standard curve. From the standard curve the concentrations of proMMP13 in all the samples are calculated. All the calculations are realised by the Paradigm software.
The data reported in the database are the % effect of the compounds at the two highest concentrations (10 and 3 μM) as well as the IC50.
% effect at the two highest concentrations is calculated according to the formula: […]
The IC50s are calculated with the software Graph Pad Prism (see tables in Example 1).

[3] = tested on: CAR-induced swelling and thermal hyperalgesia; experiment: Anti-hyperalgesic effect in animals (carrageenan injected into rat knee joint; swelling, Hargreaves test); assay type: in vivo; settings: intra-articular administration 30 minutes before CAR, TAC 10 μg/joint
Experimental: In order to induce an inflammation reaction, a carrageenan solution (CAR, 1%, 50 μl) was injected intra-articularly on one side into a rat knee joint. The uninjected side was used for control purposes. Six animals per group were used. The […] was determined by means of a micrometer screw (medial-lateral on the knee joint), and the thermal hyperalgesia was determined by means of a directed infrared light source by the Hargreaves method (Hargreaves et al., 1988) on the sole of the foot. Since the site of inflammation (knee joint) is different from the site of measurement (paw sole), use is made here of the term secondary thermal hyperalgesia, the mechanism of which is of importance for the discovery of effective analgesics.
Experimental description of thermal hyperalgesia (Hargreaves test): the experimental animal is placed in a plastic chamber on a quartz sheet. Before testing, the experimental animal is firstly given about 5-15 minutes time to familiarise itself with the environment. […] Light reflected by the paw is recorded as long as the experimental animal sits still. Withdrawal of the paw interrupts this reflection, after which the infrared light source is switched off and the time from switching on to switching off is recorded. […]

Row | SMILES | IC50 [1] [nM] | IC50 [2] [nM] | CAR-induced swelling [3]
1 | CNC(=O)c1cc(Oc2ccc(CNC(=O)Nc3cc(Cl)cnc3Cl)cc2)ccn1 [compound 8] | 130 | 278 | 
2 | C[C@]12C=CC(=O)C=C1CC[C@H]1[C@@H]3C[C@@H](O)[C@](O)(C(=O)CO)[C@@]3(C)C[C@H](O)[C@@]12F [TAC, Triamcinolone] |  |  | capable of reducing the CAR-induced swelling

— patent US20150225369A1, “DDR2 INHIBITORS FOR THE TREATMENT OF OSTEOARTHRITIS” (Merck Patent GmbH, priority 2012, published 2015)
